The results in this text go back to patent US11339130B1 (Blade Therapeutics, Inc., priority 2016, dated 2022).

Experiment [1] addresses T1, Human Calpain 9/NS1 (Homo sapiens, UniProt O14815).
T1 sequence (O14815 1-690): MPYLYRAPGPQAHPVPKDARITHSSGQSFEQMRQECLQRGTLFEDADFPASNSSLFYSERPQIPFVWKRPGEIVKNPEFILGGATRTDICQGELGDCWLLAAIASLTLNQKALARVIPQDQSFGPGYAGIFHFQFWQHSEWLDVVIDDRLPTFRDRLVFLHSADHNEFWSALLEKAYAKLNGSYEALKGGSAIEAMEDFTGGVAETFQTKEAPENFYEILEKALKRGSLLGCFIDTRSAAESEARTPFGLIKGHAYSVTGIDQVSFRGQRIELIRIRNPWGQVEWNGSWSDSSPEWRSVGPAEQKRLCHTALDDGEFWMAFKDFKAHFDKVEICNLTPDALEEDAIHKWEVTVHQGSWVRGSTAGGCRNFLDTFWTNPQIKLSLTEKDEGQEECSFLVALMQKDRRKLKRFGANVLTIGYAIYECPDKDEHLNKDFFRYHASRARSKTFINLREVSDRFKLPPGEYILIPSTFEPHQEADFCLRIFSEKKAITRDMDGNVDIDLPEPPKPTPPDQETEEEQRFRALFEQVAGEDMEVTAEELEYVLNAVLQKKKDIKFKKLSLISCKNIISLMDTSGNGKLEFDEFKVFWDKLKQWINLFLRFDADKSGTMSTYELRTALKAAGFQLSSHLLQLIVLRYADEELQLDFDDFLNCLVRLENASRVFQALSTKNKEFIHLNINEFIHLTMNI
T1 sequence (P04632 1-268 partner): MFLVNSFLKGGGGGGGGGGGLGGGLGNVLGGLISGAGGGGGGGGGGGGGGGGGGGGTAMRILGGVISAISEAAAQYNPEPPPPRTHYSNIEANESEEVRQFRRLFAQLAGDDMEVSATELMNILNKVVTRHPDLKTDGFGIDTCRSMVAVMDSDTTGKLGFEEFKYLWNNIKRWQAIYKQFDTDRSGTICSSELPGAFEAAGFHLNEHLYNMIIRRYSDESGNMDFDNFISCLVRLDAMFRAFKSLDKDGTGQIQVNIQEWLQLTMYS
Briefly: Calpain inhibition continuous fluorescence (FRET) assay, Human Calpain 9/NS1. The format is biochemical. The following applies: read-out: Human Calpain 9/NS1 IC50. The essentials:
(§1)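 Fluorescence increase from the cleaved 5-FAM/QXL 520 substrate, read at 490/520 nm, gave activity. Calcium was supplied with the substrate to activate the enzyme in situ after a 25C enzyme-inhibitor preincubation, and IC50s were fit from initial slopes.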

Experiment [2] deals with Calpain activity in SH-SY5Y cells. Briefly: SH-SY5Y + AMC fluorescence assay (Suc-LLVY-AMC substrate). The following applies: read-out: SH-SY5Y + AMC IC50. The format is cell-based.
Experiment [3] deals with Calpain activity in SH-SY5Y cells (SBDP-150). Description: SH-SY5Y Spectrin western blot assay (SBDP-150 breakdown product, A23187-induced). The following applies: SH-SY5Y cells, read-out: SH-SY5Y Spectrin IC50. Format: cell-based.
The target in experiment [4] is T2, Human Calpain 2/NS1 (Homo sapiens, UniProt P17655).
T2 sequence (P17655 1-700): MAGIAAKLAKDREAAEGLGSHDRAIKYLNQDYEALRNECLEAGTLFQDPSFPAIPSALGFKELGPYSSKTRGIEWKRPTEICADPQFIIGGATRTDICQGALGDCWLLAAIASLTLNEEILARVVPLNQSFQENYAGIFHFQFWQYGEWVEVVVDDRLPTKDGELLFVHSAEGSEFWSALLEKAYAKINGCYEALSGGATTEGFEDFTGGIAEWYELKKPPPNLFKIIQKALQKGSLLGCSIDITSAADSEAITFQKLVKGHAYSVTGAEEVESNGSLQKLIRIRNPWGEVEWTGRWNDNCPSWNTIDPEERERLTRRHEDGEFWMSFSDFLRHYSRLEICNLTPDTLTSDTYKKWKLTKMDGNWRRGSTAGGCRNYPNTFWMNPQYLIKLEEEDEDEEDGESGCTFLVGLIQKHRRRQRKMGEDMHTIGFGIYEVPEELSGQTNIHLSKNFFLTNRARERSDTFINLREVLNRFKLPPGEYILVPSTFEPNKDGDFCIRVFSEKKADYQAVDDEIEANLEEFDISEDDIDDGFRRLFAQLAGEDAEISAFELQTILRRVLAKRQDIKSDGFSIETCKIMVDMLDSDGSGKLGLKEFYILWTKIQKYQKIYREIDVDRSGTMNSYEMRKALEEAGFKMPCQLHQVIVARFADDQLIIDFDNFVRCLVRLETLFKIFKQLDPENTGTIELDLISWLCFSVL
T2 sequence (P04632 1-268 partner): T1 sequence (P04632 1-268 partner)
Briefly: Calpain inhibition continuous fluorescence (FRET) assay, Human Calpain 2/NS1. The format is biochemical. Conditions: read-out: Human Calpain 2/NS1 IC50. The essentials:
as §1

For experiment [5], the target named is T3, Human Calpain 1/NS1 (Homo sapiens, UniProt P07384).
T3 sequence (P07384 1-714): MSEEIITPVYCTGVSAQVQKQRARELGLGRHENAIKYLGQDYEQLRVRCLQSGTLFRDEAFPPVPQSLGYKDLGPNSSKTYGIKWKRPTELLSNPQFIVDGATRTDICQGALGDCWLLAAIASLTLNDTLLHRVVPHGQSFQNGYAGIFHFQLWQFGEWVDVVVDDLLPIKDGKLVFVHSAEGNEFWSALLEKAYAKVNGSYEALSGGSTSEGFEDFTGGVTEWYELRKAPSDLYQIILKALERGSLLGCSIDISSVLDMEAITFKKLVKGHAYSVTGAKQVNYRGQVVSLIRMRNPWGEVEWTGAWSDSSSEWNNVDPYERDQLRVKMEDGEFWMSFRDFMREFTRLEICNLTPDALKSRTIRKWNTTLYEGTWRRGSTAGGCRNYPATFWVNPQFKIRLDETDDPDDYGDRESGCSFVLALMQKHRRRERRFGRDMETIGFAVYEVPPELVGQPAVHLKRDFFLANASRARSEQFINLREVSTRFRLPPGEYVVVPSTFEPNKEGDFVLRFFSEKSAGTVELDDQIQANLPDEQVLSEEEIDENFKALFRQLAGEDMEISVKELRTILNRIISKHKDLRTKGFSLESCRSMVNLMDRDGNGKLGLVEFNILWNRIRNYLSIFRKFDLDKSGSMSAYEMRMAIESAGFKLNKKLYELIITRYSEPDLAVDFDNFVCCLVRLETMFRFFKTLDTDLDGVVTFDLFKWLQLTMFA
T3 sequence (P04632 1-268 partner): T1 sequence (P04632 1-268 partner)
Briefly: Calpain inhibition continuous fluorescence (FRET) assay, Human Calpain 1/NS1. The format is biochemical. The following applies: read-out: Human Calpain 1/NS1 IC50. The essentials: as §1

The mark [6] stands for this setting: Homo sapiens, Column D, A23187-induced SBDP-150.
[7] abbreviates: Homo sapiens, A23187-induced SBDP-150, western blot.

Where two headings read alike, the source gives them in different places. Where only a bound is given, the exact number is not on record here.

Regarding `Cc1cccc(-c2cccc(-n3nc(C)cc3C(=O)N[C@@H](Cc3ccccc3)C(=O)C(N)=O)c2)c1` [Compound 105, (S)—N-(4-amino-3,4-dioxo-1-phenylbutan-2-yl)-3-methyl-1-(3′-methyl-[1,1′-biphenyl]-3-yl)-1H-pyrazole-5-carboxamide], the IC50 in experiment [1] (Column C) is below 3 µM; in experiment [2] (Column E) it was above 25 µM; in experiment [3] (setting [6]), above 25 µM; in experiment [4] (Column B), below 3 µM; in experiment [5] (Column A), below 3 µM.

Turning to `NC(=O)C(=O)C(Cc1ccccc1)NC(=O)c1nc(C2CC2)oc1-c1ccccc1` (stereo not drawn) [Compound 394, N-(4-amino-3,4-dioxo-1-phenylbutan-2-yl)-2-cyclopropyl-5-phenyloxazole-4-carboxamide], the IC50 in experiment [1] was below 3 µM; in experiment [2], above 25 µM; in experiment [3] (setting [7]) it was above 25 µM; in experiment [4], below 3 µM; in experiment [5] it was below 3 µM.

For the compound `Cc1nc(-c2cnc3ccccc3n2)c(C(=O)NC(Cc2ccccc2)C(=O)C(N)=O)o1` (stereo not drawn) [Compound 356, N-(4-amino-3,4-dioxo-1-phenylbutan-2-yl)-2-methyl-4-(quinoxalin-2-yl)oxazole-5-carboxamide], the IC50 in experiment [1] was below 3 µM; in experiment [2], above 25 µM; in experiment [3] (setting [7]) it was above 25 µM; in experiment [4] it was below 3 µM; in experiment [5], below 3 µM.

Consider `Cn1cc(C(=O)NC(CC(F)(F)F)C(=O)C(N)=O)c(-c2ccccc2)n1` (stereo not drawn) [Compound 424, N-(5-amino-1,1,1-trifluoro-4,5-dioxopentan-3-yl)-1-methyl-3-phenyl-1H-pyrazole-4-carboxamide], for which the IC50 is below 3 µM in experiment [1]; above 25 µM in experiment [2]; 10 to 25 µM in experiment [3] (setting [7]); below 3 µM in experiment [4]; 3 to 10 µM in experiment [5].

In the case of `NC(=O)C(=O)[C@H](Cc1ccccc1)NC(=O)c1sc(C2CC2)nc1-c1ccccc1` [Compound 207, (S)—N-(4-amino-3,4-dioxo-1-phenylbutan-2-yl)-2-cyclopropyl-4-phenylthiazole-5-carboxamide], the IC50 was below 3 µM in experiment [1] (Column C); below 10 µM in experiment [2] (Column E); 10 to 25 µM in experiment [3] (setting [6]); below 3 µM in experiment [4] (Column B); below 3 µM in experiment [5] (Column A).

With `Cc1cc(C(=O)N[C@@H](Cc2ccccc2)C(=O)C(N)=O)n(-c2ccc(-c3cccc(F)c3)cc2)n1` [Compound 216, (S)—N-(4-amino-3,4-dioxo-1-phenylbutan-2-yl)-1-(3′-fluoro-[1,1′-biphenyl]-4-yl)-3-methyl-1H-pyrazole-5-carboxamide], the IC50 in experiment [1] (Column C) was below 3 µM; in experiment [2] (Column E) it was above 25 µM; in experiment [3] (setting [6]), below 10 µM; in experiment [4] (Column B), below 3 µM; in experiment [5] (Column A) it was below 3 µM.

Regarding `Cn1cc(C(=O)N[C@@H](Cc2ccccc2)C(=O)C(N)=O)c(-c2ccc(F)cc2)n1` [Compound 179, (S)—N-(4-amino-3,4-dioxo-1-phenylbutan-2-yl)-3-(4-fluorophenyl)-1-methyl-1H-pyrazole-4-carboxamide], the IC50 in experiment [1] (Column C) was below 3 µM; in experiment [2] (Column E), above 25 µM; in experiment [3] (setting [6]), 10 to 25 µM; in experiment [4] (Column B), below 3 µM; in experiment [5] (Column A), below 3 µM.

As to `Cc1cc(C(=O)NC(Cc2ccccc2)C(=O)C(N)=O)n(-c2ccc(OC3CCOCC3)cc2)n1` (stereo not drawn) [Compound 440, N-(4-amino-3,4-dioxo-1-phenylbutan-2-yl)-3-methyl-1-(4-((tetrahydro-2H-pyran-4-yl)oxy)phenyl)-1H-pyrazole-5-carboxamide], the IC50 in experiment [1] was below 3 µM; in experiment [2], above 25 µM; in experiment [3] (setting [7]), below 10 µM; in experiment [4], below 3 µM; in experiment [5], below 3 µM.

As for `CCCCC(NC(=O)c1oc(C)nc1-c1ccccc1)C(=O)C(=O)NC1CC1` (stereo not drawn) [Compound 460, N-(1-(cyclopropylamino)-1,2-dioxoheptan-3-yl)-2-methyl-4-phenyloxazole-5-carboxamide], the IC50 is below 3 µM in experiment [1]; above 25 µM in experiment [2]; above 25 µM in experiment [3] (setting [7]); below 3 µM in experiment [4]; below 3 µM in experiment [5].

As for `NC(=O)C(=O)[C@H](Cc1ccccc1)NC(=O)c1conc1-c1ccc(F)cc1` [Compound 289, (S)—N-(4-amino-3,4-dioxo-1-phenylbutan-2-yl)-3-(4-fluorophenyl)isoxazole-4-carboxamide], the IC50 in experiment [1] (Column C) was below 3 µM; in experiment [2] (Column E), above 25 µM; in experiment [3] (setting [6]), 10 to 25 µM; in experiment [4] (Column B), below 3 µM; in experiment [5] (Column A), below 3 µM.

On to “N-(4-amino-3,4-dioxo-1-phenylbutan-2-yl)-1-(2-cyanopyrimidin-4-yl)-3-methyl-1H-pyrazole-5-carboxamide [Compound 448]”, for which the IC50 was below 3 µM in experiment [1]; below 10 µM in experiment [2]; below 10 µM in experiment [3] (A23187-induced SBDP-150, western blot); below 3 µM in experiment [4]; below 3 µM in experiment [5].

Take `Cn1cc(C(=O)NC(Cc2ccccc2)C(=O)C(N)=O)c(-c2ccoc2)n1` (stereo not drawn) [Compound 502, N-(4-amino-3,4-dioxo-1-phenylbutan-2-yl)-3-(furan-3-yl)-1-methyl-1H-pyrazole-4-carboxamide]: the IC50 is below 3 µM in experiment [1]; below 10 µM in experiment [2]; 10 to 25 µM in experiment [3] (setting [7]); below 3 µM in experiment [4]; below 3 µM in experiment [5].
